Several values for one entry are separate records, joined by “and”; a condition that tells them apart may be missing. Equal entries are not always repeated.
Test system: 266295-075-R-J1-PDC spheroid viability
Experiment: Anticancer human tumor 266295-075-R-J1-PDC patient-derived head and neck squamous carcinoma cell line growth inhibition [POLQ]
Details: spheroids with HUVEC and MSC; for viability, T/C: stronger effect = lower value; for IC50: curve of compound
Method: Multicellular complex tumor spheroid response to Polymerase (POL) inhibitors (novobiocin, ART-558, RP6685) in combination with a variety of drugs and investigational agents in selected tumor cell lines
The POL inhibitors (novobiocin, ART-558, and RP6685) were evaluated both individually and in combination with standard of care and investigational anticancer small molecules within a complex spheroid model of solid tumors. . Complex spheroids include a stromal component modeled by human endothelial cells (HUVEC) and fibroblasts modeled by human mesenchymal stem cells (MSCs). The concentration ranges selected for each drug and investigational agent were based upon clinically achievable concentrations if the clinical Cmax of the agent was known.
Compounds. The drugs and investigational agents: novobiocin (NSC847541), ART-558 (NSC835418), RP-6685 (NSC848927), peposertib (NSC802822), ceralasertib (NSC780249), elimusertib (NSC800525), camonsertib (NSC841442), AZD-1390 (NSC803789), olaparib (NSC753686), talazoparib (NSC767125), rucaparib (NSC756644), sotorasib (NSC818433), MRTX-1133 (NSC836407), SN-38 (NSC673596), topotecan (NSC609699), epotoside (NSC141540), doxorubicin (NSC123127), gemcitabine (NSC613327), 5-fluorouracil (NSC19893), paclitaxel (NSC125973), vemurafenib (NSC761431), MSA-2 (NSC828583), SN-011 (NSC837082), adavosertib (NSC754352), prexasertib (NSC758257), carboplatin (NSC241240) and oxaliplatin (NSC266046), were obtained from the National Cancer Institute (NCI) Developmental Therapeutics Program Chemical Repository (21). The FDA-approved anticancer drug set is available from the Developmental Therapeutics Program at https://dtp.cancer.gov/organization/dscb/obtaining/. […] The stock solutions were prepared in dimethyl sulfoxide (DMSO, Sigma-Aldrich, St. Louis, MO, cat. D2650), except for the platinum compounds which were prepared in saline (Quality Biological, Gaithersburg, MD, cat. 114-055-101), at 800-fold the tested concentration and stored at -70 degrees C prior to their use. All drugs and investigational agents were tested over a range starting from a high concentration at or near the clinical Cmax and decreasing in half-log increments. If the clinical Cmax for an agent had not been determined, the highest concentration tested was 10 microM, except for SN-38, which was tested at a high concentration of 1 microM.
Cell Culture. All cells were maintained in an incubator at 37 degrees C and 5% CO2 with 95% humidity. The PDC lines were cultured according to standard operating procedures established by the NCI PDMR (https://pdmr.cancer.gov). Table 3 of the manuscript, lists the cell lines along with the number of the three cell types plated to form the mct-spheroids and media for tumor cell growth. After thawing, all PDC lines, except 997537-175-T-J1-PDC and 415267-285-R-J2-PDC, were cultured in Matrigel-coated flasks prepared with a working solution of 1X Ham's F-12 nutrient mix, without supplementation (Thermo Fisher Scientific, cat. 11765054), 100 U/mL penicillin-streptomycin (Thermo Fisher Scientific, cat. 15140122), and 2.5% Matrigel (Corning Inc., Corning, NY, cat. 354248) for the first three passages. The two PDC lines 997537-175-T-J1-PDC and 415267-285-R-J2-PDC were cultured on uncoated flasks. The 857933-349-R-J2-PDC line was cultured in 6C/Colon 1B media containing advanced DMEM/F-12 (Thermo Fisher Scientific, cat. 12634028), 10 mM HEPES (Thermo Fisher Scientific, cat. 15630080), 1X GlutaMAX supplement (Thermo Fisher Scientific, cat. 35050061), 0.1 mg/mL primocin (InvivoGen, San Diego, CA, cat. ant-pm-2), 10% defined fetal bovine serum, heat inactivated (HyClone Laboratories Inc., Logan, UT, cat. SH30070.03HI), 50% L-WRN conditioned media (ATCC, cat. CRL-3276), 1.25 mM N-Acetyl-L-cysteine (Sigma-Aldrich, cat. A9165), 10 mM nicotinamide (Sigma-Aldrich, cat. N0636), 1X B-27 supplement (Thermo Fisher Scientific, cat. 17504044), 1X N-2 supplement (Thermo Fisher Scientific, cat. […]
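Note: spheroids exposed to compounds for seven days before readout.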

Row | SMILES | viability, T/C (compound 0.0316 µM) | viability, T/C (compound 0.1 µM) | viability, T/C (compound 0.316 µM) | viability, T/C (compound 1 µM) | viability, T/C (compound 3.16 µM) | viability, T/C (compound 10 µM) | IC50 | viability, T/C (compound 0.00316 µM) | viability, T/C (compound 0.01 µM) | viability, T/C (compound 0.00949 µM) | viability, T/C (compound 0.03 µM) | viability, T/C (compound 0.0949 µM) | viability, T/C (compound 0.3 µM) | viability, T/C (compound 0.949 µM) | viability, T/C (compound 3 µM) | viability, T/C (compound 0.000316 µM) | viability, T/C (compound 0.001 µM)
1 | C#Cc1c(F)ccc2cc(O)cc(-c3ncc4c(N5CC6CCC(C5)N6)nc(OCC56CCCN5CC(F)C6)nc4c3F)c12 (stereo unspecified) | 88.8% and 94.8% and 100% | 93.5% and 94.2% and 79.7% | 81.2% and 69.6% and 68.8% | 76.1% and 83.5% and 63.2% | 66% and 76.4% and 54.8% | 61.1% and 56.7% and 58% | > 10000 nM | – | – | – | – | – | – | – | – | – | –
2 | C=CC(=O)N1CCN(c2nc(=O)n(-c3c(C)ccnc3C(C)C)c3nc(-c4c(O)cccc4F)c(F)cc23)C(C)C1 (stereo unspecified) | 85.8% and 77.5% and 104% | 98.6% and 98% and 100% | 100% and 98.1% and 101% | 104% and 95.8% and 112% | 120% and 102% and 128% | 110% and 129% and 93.2% | > 10000 nM | – | – | – | – | – | – | – | – | – | –
3 | C=CCn1c(=O)c2cnc(Nc3ccc(N4CCN(C)CC4)cc3)nc2n1-c1cccc(C(C)(C)O)n1 | 102% and 93.3% and 99.6% | 127% and 114% and 84.3% | 83% and 93.8% and 89.9% | 70% and 70.6% and 63.8% | – | – | > 1000 nM | 98.5% and 82.4% and 90.4% | 86.6% and 97.5% and 99.7% | – | – | – | – | – | – | – | –
4 | CC(=O)O[C@H]1C(=O)[C@@]2(C)[C@H]([C@H](OC(=O)c3ccccc3)[C@]3(O)C[C@H](OC(=O)[C@H](O)[C@@H](NC(=O)c4ccccc4)c4ccccc4)C(C)=C1C3(C)C)[C@]1(OC(C)=O)CO[C@@H]1C[C@@H]2O | – | – | – | – | – | – | > 3000 nM | – | – | 76.7% and 71.7% and 79% | 72.1% and 64.8% and 76% | 54.3% and 61.7% and 67.4% | 80.9% and 69.8% and 75% | 73% and 75.7% and 70.2% | 61.1% and 82% and 77.6% | – | –
5 | CC(C)n1c(=O)n(C)c2cnc3cc(F)c(-c4ccc(OCCCN5CCCCC5)nc4)cc3c21 | 127% and 94.5% and 93.5% | 74.1% and 94.9% and 97.8% | 107% and 111% and 96.5% | 100% and 92.8% and 103% | 89.6% and 91.6% and 94.1% | 70.6% and 64.5% and 76.9% | > 10000 nM | – | – | – | – | – | – | – | – | – | –
6 | CC1COCCN1c1cc(-c2ccnn2C)c2ccnc(-c3ccn[nH]3)c2n1 (stereo unspecified) | 91% and 92.4% and 98.3% | 70.7% and 81.1% and 80.7% | 62.5% and 67.2% and 69.4% | 45.2% and 52.3% and 59.2% | 47.1% and 49% and 53.5% | 36.6% and 36.9% and 32% | 965 nM and 1850 nM and 2430 nM | – | – | – | – | – | – | – | – | – | –
7 | CC1COCCN1c1cc(C2(O)CC3CCC(C2)O3)c2cnn(-c3ccn[nH]3)c2n1 (stereo unspecified) | 74.1% and 100% and 73.6% | 84.5% and 71.6% and 81% | 62.8% and 65.5% and 67.8% | 43.3% and 50.5% and 46.8% | 40.4% and 43.8% and 42.7% | 27.9% and 29.2% and 30.2% | 708 nM and 992 nM and 944 nM | – | – | – | – | – | – | – | – | – | –
8 | CC1COCCN1c1cc(C2(S(C)(=N)=O)CC2)nc(-c2ccnc3[nH]ccc23)n1 (stereo unspecified) | 92.3% and 97.5% and 86.5% | 95.2% and 93.2% and 93.5% | 89.9% and 85.6% and 97.6% | 83.2% and 80% and 78.7% | 73.2% and 87.5% and 76.5% | 55.6% and 56% and 54.7% | > 10000 nM | – | – | – | – | – | – | – | – | – | –
9 | CCCS(=O)(=O)Nc1ccc(F)c(C(=O)c2c[nH]c3ncc(-c4ccc(Cl)cc4)cc23)c1F | 123% and 120% and 97.3% | 110% and 106% and 109% | 105% and 98.9% and 110% | 113% and 136% and 117% | 121% (2×) and 136% | 141% and 162% and 187% | > 10000 nM | – | – | – | – | – | – | – | – | – | –
10 | CC[C@@]1(O)C(=O)OCc2c1cc1n(c2=O)Cc2cc3c(CN(C)C)c(O)ccc3nc2-1 | 89.2% and 93.9% and 103% | 82.4% and 82.3% and 87.1% | – | – | – | – | > 100 nM | 80.3% and 78.6% and 92.5% | 80.8% and 95.8% and 96.8% | – | – | – | – | – | – | 80.3% and 92.4% and 96.2% | 96.8% and 98.5% and 96.1%
11 | CCc1c2c(nc3ccc(O)cc13)-c1cc3c(c(=O)n1C2)COC(=O)[C@]3(O)CC | 71.7% and 92.1% and 88.6% | 87% (2×) and 97.7% | 95.2% and 104% and 109% | 71.8% (2×) and 91.9% | – | – | > 1000 nM | 84.2% and 91.3% and 93.2% | 77.4% and 78.1% and 89.5% | – | – | – | – | – | – | – | –
12 | CCc1cc2c(N3CCc4c(cc(Cn5ccnc5)cc4-c4cn(C)nc4C(F)(F)F)C3=O)cc(C)nc2c(OC)n1 | 98.5% and 103% and 90.3% | 95.8% and 103% and 98.5% | 91.9% and 89.5% and 109% | 120% and 97% and 110% | 123% and 113% and 127% | 128% (2×) and 130% | > 10000 nM | – | – | – | – | – | – | – | – | – | –
13 | CCc1cc2c(N3CCc4c(cc(Cn5ccnc5)cc4-c4cn(C)nc4C(F)(F)F)C3=O)ccnc2c(OC)n1 | 90% and 97.3% and 94% | 86.8% and 96.2% and 103% | 93.4% and 103% and 122% | 106% (2×) and 117% | 125% and 145% and 137% | 126% and 117% and 140% | > 10000 nM | – | – | – | – | – | – | – | – | – | –

From PubChem BioAssay AID1963853 (Molecular Pharmacology Branch, DTP, NCI, 2024)
